The subject of this experiment is Hep3B cells. Kind of experiment: Epo protein produced by Hep3B cell line using ELISA method. Format: cell-based. To be noted: Homo sapiens, 48 Hours incubation, 100 micromolar the maximum concentration tested. On the procedure:
Measure Epo Protein Produced by Hep3B Cell Line Using ELISA Method.
Hep3B cells obtained from the American Type Culture Collection (ATCC) are seeded at 2×10^4 cells/well in Dulbecco's Modified Eagle Medium (DMEM)+10% FBS in 96-well plates. Cells are incubated at 37deg C./5% CO2/90% humidity (standard cell culture incubation conditions). After overnight adherence, medium is removed and replaced with DMEM without serum containing test compound or DMSO negative control. Following 48 Hours incubation, cell culture medium is collected and assayed by ELISA to quantitate Epo protein.
(ELISA stands for enzyme-linked immunosorbent assay.)
As to `O=C(O)CNC(=O)c1c(O)n(-c2ccccn2)c(=O)n(Cc2ccccc2)c1=O` [Example 8, N-{[6-Hydroxy-2,4-dioxo-3-(phenylmethyl)-1-(2-pyridinyl)-1,2,3,4-tetrahydro-5-pyrimidinyl]carbonyl}glycine], the EC50 is over 100 µM.
The compound `O=C(O)CNC(=O)c1c(O)n(-c2ccccc2[N+](=O)[O-])c(=O)n(Cc2ccccc2)c1=O` [Example 9, N-{[6-Hydroxy-1-(2-nitrophenyl)-2,4-dioxo-3-(phenylmethyl)-1,2,3,4-tetrahydro-5-pyrimidinyl]carbonyl}glycine] showed an EC50 of over 100 µM.
Consider `CC(C)(C)c1ccc(Cn2c(=O)c(C(=O)NCC(=O)O)c(O)n(-c3ccccc3-c3ccccc3)c2=O)cc1` [Example 31, N-[(1-(2-Biphenylyl)-3-{[4-(1,1-dimethylethyl)phenyl]methyl}-6-hydroxy-2,4-dioxo-1,2,3,4-tetrahydro-5-pyrimidinyl)carbonyl]glycine], for which the EC50 is over 100 µM.
Compound `O=C(O)CNC(=O)c1c(O)n(C2CCCCC2)c(=O)n(CCCN2CCOCC2)c1=O` [Example 35, N-({1-Cyclohexyl-6-hydroxy-3-[3-(4-morpholinyl)propyl]-2,4-dioxo-1,2,3,4-tetrahydro-5-pyrimidinyl}carbonyl)glycine] came in with a concentration giving a half-maximal response (EC50) of over 100 µM.
Next, `CC1(C)CCC(C)(C)c2cc(Cn3c(=O)c(C(=O)NCC(=O)O)c(O)n(C4CCCCC4)c3=O)ccc21` [Example 39, N-({1-Cyclohexyl-6-hydroxy-2,4-dioxo-3-[(5,5,8,8-tetramethyl-5,6,7,8-tetrahydro-2-naphthalenyl)methyl]-1,2,3,4-tetrahydro-5-pyrimidinyl}carbonyl)glycine]: over 100 µM; `O=C(O)CNC(=O)c1c(O)n(-c2cccc3ccccc23)c(=O)n(C2CCCCC2)c1=O` [Example 88, N-{[3-Cyclohexyl-6-hydroxy-1-(1-naphthalenyl)-2,4-dioxo-1,2,3,4-tetrahydro-5-pyrimidinyl]carbonyl}glycine]: over 100 µM; `CCOC(=O)CNC(=S)c1c(O)n(C2CCCCC2)c(=O)n(C2CCCCC2)c1=O` [Example 91, Ethyl N-[(1,3-dicyclohexyl-6-hydroxy-2,4-dioxo-1,2,3,4-tetrahydro-5-pyrimidinyl)carbonothioyl]glycinate]: over 100 µM.
In the case of `O=C(O)CCCCCn1c(O)c(C(=O)NCC(=O)O)c(=O)n(C2CCCCC2)c1=O` [Example 93, 6-[5-{[(Carboxymethyl)amino]carbonyl}-3-cyclohexyl-6-hydroxy-2,4-dioxo-3,4-dihydro-1(2 H)-pyrimidinyl]hexanoic acid] it was over 100 µM; in that of `O=C(O)CCCCCn1c(O)c(C(=S)NCC(=O)O)c(=O)n(C2CCCCC2)c1=O` [Example 94, 6-[5-{[(Carboxymethyl)amino]carbonothioyl}-3-cyclohexyl-6-hydroxy-2,4-dioxo-3,4-dihydro-1(2 H)-pyrimidinyl]hexanoic acid], over 100 µM.

As a reminder, the EC50 is the concentration needed to bring the measured effect to its halfway point. The low end stands for an effect from little substance, the high end for a need for much substance.

(Values after patent US10336711B2, “Prolyl hydroxylase inhibitors” (GlaxoSmithKline, LLC, priority 2006, dated 2019).)
